Measured values reported in patent publication US7585875B2, “Substituted pyrazolo[1,5-a]pyridine compounds and their methods of use” (Avigen, Inc., priority 2006, dated 2009).
Counter-ions that a name gives are not always drawn.

Experiments:
[1] = test system: mechanical allodynia after chronic constriction injury (CCI) to the sciatic nerve; test: Mechanical allodynia by response to von Frey fibers, rat chronic constriction injury (CCI) model; format: in vivo, male Sprague-Dawley rats; details: 2 hr post dosing
Description: Chronic Constriction Injury: Heat and cold allodynia responses as well as mechanical allodynia sensations can be evaluated as described below in rats having a chronic constriction injury (CCI). A unilateral mononeuropathy is produced in rats using the chronic constriction injury model described in Bennett et al., Pain (1988) 33:87-107. CCI is produced in anesthetized rats as follows. The lateral aspect of each rat's hind limb is shaved and scrubbed with Nolvasan. Using aseptic techniques, an incision is made on the lateral aspect of the hind limb at the mid-thigh level. The biceps femoris is bluntly dissected to expose the sciatic nerve. On the right hind limb of each rat, four loosely tied ligatures (for example, Chromic gut 4.0; Ethicon, Johnson and Johnson, Somerville, N.J.) are made around the sciatic nerve approximately 1-2 mm apart. On the left side of each rat, an identical dissection is performed except that the sciatic nerve is not ligated (sham). The muscle is closed with a continuous suture pattern with, e.g., 4-0 Vicryl (Johnson and Johnson, Somerville, N.J.) and the overlying skin is closed with wound clips. The rats are ear-tagged for identification purposes and returned to animal housing.
To induce allodynia, male Sprague-Dawley rats underwent chronic constriction injury (CCI) to the sciatic nerve as described by Bennett and Xie, Pain 1988; 33(1):87-107. The plantar surface of the hind paws was stimulated with von Frey filaments (Stoelting) to induce a withdrawal response by blinded personnel. The bending force of fiber required to induce a 50% withdrawal response was calculated following CCI surgery (pre-dosing baseline). N=5-6 allodynic rats received a single intraperitoneal administration of test compound or vehicle. Two hours post-dosing, 50% paw withdrawal threshold was determined again by blinded testers using von Frey filaments. The change in 50% withdrawal threshold relative to pre-dosing baseline is reported in Table 2 for various substituted pyrazolo[1,5-a]pyridine compounds of the invention.

[2] = biological target: phosphodiesterase (PDE) enzyme derived from bovine brain; test: Inhibition of PDE (PDELight kit, cAMP substrate); format: biochemical; details: PDE from brain extract, cAMP as substrate
Procedure: In a 96-well plate, phosphodiesterase (PDE) enzyme (0.5-1 mU/well) derived from bovine brain (Sigma) was combined with 5 uM cAMP substrate (Sigma). Test compounds (0-200 uM) or vehicle (0.5% DMSO) were added to the enzyme/substrate and incubated for 1 hour. Using a PDELight® kit (Cambrex), the amount of AMP produced in the reaction from the hydrolysis of cAMP was quantified using PDELight AMP Detection Reagent which converts the AMP directly to ATP. The assay uses luciferase, which catalyses the formation of light from the newly formed ATP and luciferin. The luminescence was read on a Victor Light 1420 luminometer. IC50 calculations were plotted using a nonlinear regression curve fit.

Structure (SMILES) | Mechanical Allodynia ΔWT (change from pre-dosing 50% withdrawal threshold) ([1]; 10 mg/kg IP) | further results
CC(C)c1nn2ccccc2c1-c1ccncc1 [compound 1103, 2-Isopropyl-3-pyridin-4-yl-pyrazolo[1,5-a]pyridine] | 1.54 grams | –
CC(C)c1nn2ccccc2c1C(N)C(C)C (stereo not drawn) [Compound 1051, 1-(2-isopropylpyrazolo[1,5-a]pyridin-3-yl)-2-methylpropan-1-amine hydrochloride] | 0.29 grams | –
CC(N)C(=O)c1c(N(C)C)nn2ccccc12 (stereo not drawn) [Compound 1075, 2-amino-1-(2-(dimethylamino)pyrazolo[1,5-a]pyridin-3-yl)propan-1-one] | 0.67 grams | –
COc1nn2ccccc2c1C(=O)C(C)N (stereo not drawn) [Compound 1057, 2-amino-1-(2-methoxypyrazolo[1,5-a]pyridin-3-yl)propan-1-one] | 0.06 grams | –
CC(=O)SC(C)C(=O)c1c(C(C)C)nn2ccccc12 (stereo not drawn) [Compound 1081, S-1-(2-isopropylpyrazolo[1,5-a]pyridin-3-yl)-1-oxopropan-2-yl ethanethioate] | 0.07 grams | –
CC(C)c1nn2ccccc2c1-c1cc[nH]n1 [Compound 1141, 2-isopropyl-3-(1H-pyrazol-3-yl)-pyrazolo[1,5-a]pyridine] | 1.04 grams | –
CC(C)C(=O)c1c(N(C)C)nn2ccccc12 [Compound 1072, 1-(2-(dimethylamino)pyrazolo[1,5-a]pyridin-3-yl)-2-methylpropan-1-one] | 1.48 grams | Observation noted beside the allodynia value ([1]; 10 mg/kg IP): lethargy
CC(O)C(=O)c1c(C(C)C)nn2ccccc12 (stereo not drawn) [Compound 1068, 2-hydroxy-1-(2-isopropylpyrazolo[1,5-a]pyridin-3-yl)propan-1-one] | 0.7 grams | –
CC(C)c1nn2ccccc2c1C=O [Compound 1073, 2-isopropylpyrazolo[1,5-a]pyridine-3-carbaldehyde] | 0 grams | –
COC(C)C(=O)c1c(C(C)C)nn2ccccc12 (stereo not drawn) [Compound 1069, 1-(2-isopropylpyrazolo[1,5-a]pyridin-3-yl)-2-methoxypropan-1-one] | 0.13 grams | –
CC(=O)c1c(C(C)C)nn2ccccc12 [Compound 1080, 1-(2-isopropylpyrazolo[1,5-a]pyridin-3-yl)ethanone] | 1.14 grams | –
CCC(=O)c1c(-c2ccc(F)cc2)nn2ccccc12 [Compound 1070, 1-(2-(4-fluorophenyl)pyrazolo[1,5-a]pyridin-3-yl)propan-1-one] | 0 grams | –
CC(C)c1nn2ccccc2c1-c1ccnc(N)n1 [Compound 1139, 4-(2-Isopropyl-pyrazolo[1,5-a]pyridin-3-yl)-pyrimidin-2-ylamine] | 0.21 grams | –
CC(C)CC(N)C(=O)c1c(C(C)C)nn2ccccc12 (stereo not drawn) [Compound 1061, 2-amino-1-(2-isopropylpyrazolo[1,5-a]pyridin-3-yl)-4-methylpentan-1-one] | 0 grams | –
CC(C)c1nn2ccccc2c1-c1cccnc1 [Compound 1111, 2-Isopropyl-3-pyridin-3-yl-pyrazolo[1,5-a]pyridine] | 0 grams | –
CC(C)c1nn2ccccc2c1-c1cnn(C)c1 [Compound 1112, 2-Isopropyl-3-(1-methyl-1H-pyrazol-4-yl)-pyrazolo[1,5-a]pyridine] | 0 grams | –
CC(=O)OC(C)C(=O)c1c(C(C)C)nn2ccccc12 (stereo not drawn) [Compound 1067, 1-(2-isopropylpyrazolo[1,5-a]pyridin-3-yl)-1-oxopropan-2-yl acetate] | 0.46 grams | –

Structure (SMILES) | Mechanical Allodynia ΔWT (change from pre-dosing 50% withdrawal threshold) ([1]; 10 mg/kg IP) | further results
CC(C)c1nn2ccccc2c1-c1cccc(N)c1 [Compound 1100, 3-(2-isopropyl-pyrazolo[1,5-a]pyridin-3-yl)-phenylamine] | 0 grams | –
CC(C)Nc1nccc(-c2c(C(C)C)nn3ccccc23)n1 [compound 1137, isopropyl-[4-(2-isopropylpyrazolo[1,5-a]pyridin-3-yl)-pyrimidin-2-yl]-amine] | 3.26 grams | –
CC(C)c1nn2ccccc2c1-c1cn[nH]c1 [Compound 1104, 2-isopropyl-3-(1H-pyrazol-4-yl)-pyrazolo[1,5-a]pyridine] | 0.86 grams | –
CCC(N)C(=O)c1c(C(C)C)nn2ccccc12 (stereo not drawn) [Compound 1060, 2-amino-1-(2-isopropylpyrazolo[1,5-a]pyridin-3-yl)butan-1-one] | 10 mg/kg: 1.87 grams | Mechanical Allodynia ΔWT (change from pre-dosing 50% withdrawal threshold) ([1]; 20 mg/kg IP): 20 mg/kg: 0.74 grams
CC(C)c1nn2ccccc2c1-c1c[nH]c(=S)[nH]1 [compound 1085, 4-(2-isopropylpyrazolo[1,5-a]pyridin-3-yl)-1H-imidazole-2(3H)-thione] | 1.93 grams | –
CC(C)c1nn2ccccc2c1-c1ccnc(NCCCN2CCN(C)CC2)n1 [Compound 1135, [4-(2-Isopropyl-pyrazolo[1,5-a]pyridin-3-yl)-pyrimidin-2-yl]-[3-(4-methyl-piperazin-1-yl)-propyl]-amine] | 0 grams | –
COCC(N)C(=O)c1c(C(C)C)nn2ccccc12 (stereo not drawn) [Compound 1082, 2-amino-1-(2-isopropylpyrazolo[1,5-a]pyridin-3-yl)-3-methoxypropan-1-one] | 0.5 grams | –
CC(C)c1nn2ccccc2c1/C=N/NC(N)=O [Compound 1074, (E)-2-((2-isopropylpyrazolo[1,5-a]pyridin-3-yl)methylene)hydrazinecarboxamide] | 3.64 grams | Observation noted beside the allodynia value ([1]; 10 mg/kg IP): lethargy
COc1ccc(-c2nn3ccccc3c2C(=NOC(N)=O)C(C)C)cc1 [Compound 1023, 1-(2-(4-methoxyphenyl)pyrazolo[1,5-a]pyridin-3-yl)-2-methylpropan-1-one O-carbamoyl oxime] | – | IC50 [2]: 156 µM
CC(C)c1nn2ccccc2c1-c1ccnc(NCCCO)n1 [Compound 1134, 3-[4-(2-Isopropyl-pyrazolo[1,5-a]pyridin-3-yl)-pyrimidin-2-ylamino]-propan-1-ol] | 0 grams | –
CCCCC(N)C(=O)c1c(C(C)C)nn2ccccc12 (stereo not drawn) [Compound 1077, 2-amino-1-(2-isopropylpyrazolo[1,5-a]pyridin-3-yl)hexan-1-one] | 0.41 grams | –
CC(C)c1nn2ccccc2c1-c1ccc(N)cc1 [Compound 1101, 4-(2-Isopropyl-pyrazolo[1,5-a]pyridin-3-yl)-phenylamine] | 0.02 grams | –
CC(C)c1nn2ccccc2c1-c1ccc(N2CCOCC2)cc1 [Compound 1102, 2-Isopropyl-3-(4-morpholin-4-yl-phenyl)-pyrazolo[1,5-a]pyridine] | 0 grams | –
CC(N)C(=O)c1c(-c2ccc(F)cc2)nn2ccccc12 (stereo not drawn) [Compound 1052, 2-amino-1-(2-(4-fluorophenyl)pyrazolo[1,5-a]pyridin-3-yl)propan-1-one hydrochloride] | 10 mg/kg: 0.39 grams | Mechanical Allodynia ΔWT (change from pre-dosing 50% withdrawal threshold) ([1]; 20 mg/kg IP): 20 mg/kg: 0.31 grams
COc1nn2ccccc2c1C(=O)C(C)C [Compound 1055, 1-(2-methoxypyrazolo[1,5-a]pyridin-3-yl)-2-methylpropan-1-one] | 10 mg/kg: 2.80 grams | Mechanical Allodynia ΔWT (change from pre-dosing 50% withdrawal threshold) ([1]; 20 mg/kg IP): 20 mg/kg: 0 grams
CC(NCc1ccccc1)C(=O)c1c(C(C)C)nn2ccccc12 (stereo not drawn) [compound 1071, 2-(benzylamino)-1-(2-isopropylpyrazolo[1,5-a]pyridin-3-yl)propan-1-one] | 0.57 grams | –
C/C(=N/O)C(=O)c1c(C(C)C)nn2ccccc12 [Compound 1083, (Z)-2-(hydroxyimino)-1-(2-isopropylpyrazolo[1,5-a]pyridin-3-yl)propan-1-one] | 0 grams | –
